The values that follow come from patent US8865756B2, “Inhibitors of HCV NS5A” (Presidio Pharmaceuticals, Inc., priority 2008, dated 2014).

The subject of this assay is HCV 1b_Huh-Luc/Neo-ET cell line persistently expressing a bicistronic genotype 1b replicon in Huh 7 cells. Put plainly: HCV replicon assay (luciferase readout). The assay is classed as cell-based. The settings on record: Hepatitis C virus, Huh-7, 72 h, read-out: Inhibition of HCV genotype 1b. In a few lines: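 EC50, determined repeatedly, comes from a four-parameter logistic fit of luciferase signal as percent of untreated control. Readout follows 72 h compound exposure, in triplicate, of the HCV 1b_Huh-Luc/Neo-ET replicon line.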
(In general: In antiviral work, replicon cells carry a viral genome segment that copies itself.)

As to `COC(=O)N[C@H](C(=O)N1CCC[C@H]1c1ncc(-c2ccc(C#Cc3ccc4nc([C@@H]5CCCN5C(=O)[C@H](NC(=O)OC)C(C)C)[nH]c4c3)cc2)[nH]1)C(C)C` [Compound 1054], the EC50 was less than 1 nM.
As for `COC(=O)N[C@H](C(=O)N1CCC[C@H]1c1ncc(-c2ccc(C#Cc3ccc(-c4cnc([C@@H]5CCCN5C(=O)[C@@H](NC(=O)OC)C(C)(C)O)[nH]4)cc3)cc2)[nH]1)C(C)C` [Compound 994], the EC50 is less than 1 nM.
With `CN1CCN(C(=O)N[C@@H](C(=O)N2CCC[C@H]2c2ncc(-c3ccc(C#Cc4ccc(-c5cnc([C@@H]6CCCN6C(=O)[C@H](NC(=O)N6CCN(C)CC6)c6ccccc6)[nH]5)cc4)cc3)[nH]2)c2ccccc2)CC1` [Compound 159] the figure was less than 1 nM; with `COC(=O)N[C@H](C(=O)N1CCC[C@H]1c1ncc(-c2ccc(C#Cc3ccc(-c4cnc([C@@H]5CCCN5C(=O)[C@@H](NC(=O)N5CCN(CCO)CC5)c5ccccc5)[nH]4)cc3)cc2)[nH]1)C(C)C` [Compound 990], 1 to 9.9 nM.
For `COC(=O)N[C@H](C(=O)N1CCC[C@H]1c1ncc(-c2ccc(C#Cc3ccc(-c4cnc([C@@H]5CCCN5C(=O)[C@@H](NC(=O)OC)[C@@H](C)O)[nH]4)cc3)cc2)[nH]1)[C@@H](C)O` [Compound 283] the value was less than 1 nM; for `COC(=O)N[C@H](C(=O)N1CCC[C@H]1c1ncc(-c2ccc(C#Cc3ccc4c(c3)CCc3nc([C@@H]5CCCN5C(=O)[C@@H](NC(=O)OC)C(C)C)[nH]c3-4)cc2)[nH]1)C(C)C` [Compound 1094], less than 1 nM; for `COC(=O)N[C@@H](C)C(=O)N1CCC[C@H]1c1ncc(-c2ccc(C#Cc3ccc4nc([C@@H]5CCCN5C(=O)[C@H](C)NC(=O)OC)[nH]c4c3)cc2)[nH]1` [Compound 1028], less than 1 nM.
Take `COC(=O)N[C@H](C(=O)N1CCC[C@H]1c1ncc(C#Cc2ccc(-c3ccc4nc([C@@H]5CCCN5C(=O)[C@H](NC(=O)OC)c5ccccc5)[nH]c4c3)nc2)[nH]1)C(C)C` [Compound 1087]: the EC50 was less than 1 nM.
For `COC(=O)N[C@H](C(=O)N1CCC[C@H]1c1ncc(C#Cc2ccc(-c3cnc([C@@H]4CCCN4C(=O)[C@@H](NC(=O)OC)C(C)C)[nH]3)cc2)[nH]1)C(C)C` [Compound 134] the value was less than 1 nM; for `COC(=O)N[C@@H](C(=O)N1CCC[C@H]1c1ncc(-c2ccc(C#Cc3ccc(-c4cnc([C@@H]5CCCN5C(=O)[C@@H](c5ccccc5)N(C)C)[nH]4)cc3)cc2)[nH]1)c1ccccc1` [Compound 174], less than 1 nM.
For `COC(=O)N[C@H](C(=O)N1CCC[C@H]1c1nc(-c2cnc3cc(C#Cc4ccc(-c5cnc([C@@H]6CCCN6C(=O)[C@@H](NC(=O)OC)C(C)C)[nH]5)cc4)ccc3c2)c[nH]1)C(C)C` [Compound 1088] the value was 1 to 9.9 nM; for `CC(C)[C@@H](NC(=O)C1CC1)C(=O)N1CCC[C@H]1c1ncc(-c2ccc(C#Cc3ccc(-c4cnc([C@@H]5CCCN5C(=O)[C@H](NC(=O)C5CC5)C(C)C)[nH]4)cc3)cc2)[nH]1` [Compound 155], 1 to 9.9 nM.
As to `COC(=O)N[C@H](C(=O)N1CCC[C@H]1c1ncc(-c2ccc(C#Cc3ccc(-c4cnc([C@@H]5CCCN5C(=O)[C@H](NC(=O)N5CCC(O)CC5)c5ccccc5)[nH]4)cc3)cc2)[nH]1)C(C)C` [Compound 991], the EC50 lay within 1 to 9.9 nM.
For `O=C(N[C@@H](C(=O)N1CCC[C@H]1c1ncc(-c2ccc(C#Cc3ccc(-c4cnc([C@@H]5CCCN5C(=O)[C@H](NC(=O)N5CCCCC5)c5ccccc5)[nH]4)cc3)cc2)[nH]1)c1ccccc1)N1CCCCC1` [Compound 250] the value was less than 1 nM; for `COC(=O)N[C@@H](C(=O)N1CCC[C@H]1c1ncc(-c2ccc(C#Cc3ccc(C(=O)NC[C@@H]4CCCN4C(=O)[C@@H](c4ccccc4)N(C)C)cc3)cc2)[nH]1)c1ccccc1` [Compound 234], less than 1 nM; for `COC(=O)N[C@H](C(=O)N1CCOC[C@H]1c1ncc(-c2ccc(C#Cc3ccc4nc([C@@H]5CCCN5C(=O)[C@@H](NC(=O)OC)C(C)C)[nH]c4c3)cc2)[nH]1)C(C)C` [Compound 1027], less than 1 nM.
Turning to `COC(=O)N[C@H](C(=O)N1CCC[C@H]1c1ncc(-c2ccc(C#Cc3ccc(-c4cnc([C@@H]5CCCN5C(=O)[C@@H](c5ccccc5)N5CCN(C)CC5)[nH]4)cc3)cc2)[nH]1)C(C)C` [Compound 957], the EC50 was less than 1 nM.
Turning to `O=C(N[C@@H](C(=O)N1CCC[C@H]1C(=O)NCc1ccc(C#Cc2ccc(-c3cnc([C@@H]4CCCN4C(=O)[C@H](NC(=O)C4CC4)c4ccccc4)[nH]3)cc2)cc1)c1ccccc1)C1CC1` [Compound 190], the EC50 was less than 1 nM.
Regarding `CC(C)[C@H](NC(=O)N1CCNCC1)C(=O)N1CCC[C@H]1c1ncc(-c2ccc(C#Cc3ccc(-c4cnc([C@@H]5CCCN5C(=O)[C@@H](NC(=O)N5CCNCC5)C(C)C)[nH]4)cc3)cc2)[nH]1` [Compound 967], the EC50 lay within 10 to 999 nM.
As for `COC(=O)N[C@H](C(=O)N1CCC[C@H]1c1ncc(-c2ccc(C#Cc3ccc4nc([C@@H]5CCCN5C(=O)[C@@H](c5ccccc5)N(C)C)[nH]c4c3)cc2)[nH]1)C(C)C` [Compound 860], the EC50 is less than 1 nM.
Turning to `O=C(N[C@@H](C(=O)N1CCC[C@H]1c1ncc(-c2ccc(C#Cc3ccc(-c4cnc([C@@H]5CCCN5C(=O)[C@H](NC(=O)N5CCC(O)CC5)c5ccccc5)[nH]4)cc3)cc2)[nH]1)c1ccccc1)N1CCC(O)CC1` [Compound 251], the EC50 is less than 1 nM.
Take `COC(=O)N[C@H](C(=O)N[C@@H](C)c1ncc(-c2ccc(C#Cc3ccc(-c4cnc([C@@H]5CCCN5C(=O)[C@@H](NC(=O)OC)C(C)C)[nH]4)cc3)cc2)[nH]1)C(C)C` [Compound 275]: the EC50 is less than 1 nM.
For `O=C(N[C@@H](C(=O)N1CCC[C@H]1c1cc(-c2ccc(C#Cc3ccc(-c4cnc([C@@H]5CCCN5C(=O)[C@H](NC(=O)[C@@H]5CCCO5)c5ccccc5)[nH]4)cc3)cc2)n[nH]1)c1ccccc1)[C@@H]1CCCO1` [Compound 214] the value was less than 1 nM; for `COC(=O)N[C@@H](C(=O)N1CCC[C@H]1c1ncc(-c2ccc(C#Cc3ccc(-c4cnc([C@@H]5CCCN5C(=O)[C@H](NC(=O)N5CCC(C)(O)CC5)c5ccccc5)[nH]4)cc3)cc2)[nH]1)c1ccccc1` [Compound 273], less than 1 nM.
With `CCN(CC)[C@@H](C(=O)N1CCC[C@H]1c1ncc(-c2ccc(C#Cc3ccc(-c4cnc([C@@H]5CCCN5C(=O)[C@@H](NC(=O)OC)C(C)C)[nH]4)cc3)cc2)[nH]1)c1ccccc1` [Compound 985] the figure was less than 1 nM.
Consider `COC(=O)N[C@H](C(=O)N1CCC[C@H]1c1ncc(-c2ccc(C#Cc3ccc(-c4cnc([C@@H]5CCCN5C(=O)[C@@H](c5ccccc5)N5CCCC5)[nH]4)cc3)cc2)[nH]1)C(C)C` [Compound 984], for which the EC50 was less than 1 nM.
For `O=C([C@@H](c1ccccc1)N1CCCC1)N1CCC[C@H]1c1ncc(-c2ccc(C#Cc3ccc(-c4cnc([C@@H]5CCCN5C(=O)[C@@H](c5ccccc5)N5CCCC5)[nH]4)cc3)cc2)[nH]1` [Compound 194] the value was less than 1 nM; for `COC(=O)N[C@@H](C(=O)N1CCC[C@H]1c1ncc(-c2ccc(C#Cc3ccc(-c4cnc([C@@H]5CCCN5C(=O)Cc5cccnc5)[nH]4)cc3)cc2)[nH]1)c1ccccc1` [Compound 181], less than 1 nM.
Turning to `COC(=O)N[C@@H](C(=O)N1CCC[C@H]1c1ncc(-c2ccc(C#Cc3cnc([C@@H]4CCCN4C(=O)[C@@H](c4ccccc4)N(C)C)[nH]3)cc2)[nH]1)c1ccccc1` [Compound 128], the EC50 was less than 1 nM.
For `COC(=O)N[C@@H](C(=O)N1CCC[C@H]1c1ncc(-c2ccc(C#Cc3ccc(-c4cnc([C@@H]5CCCN5C(=O)N5CCOCC5)[nH]4)cc3)cc2)[nH]1)c1ccccc1` [Compound 198] the value was less than 1 nM; for `COC(=O)N[C@H](C(=O)N1CCC[C@H]1c1ncc(-c2ccc(C#Cc3ccc(-c4cnc([C@@H]5CCCN5C(=O)[C@H](NC(=O)N5CC[C@@H](O)C5)c5ccccc5)[nH]4)cc3)cc2)[nH]1)C(C)C` [Compound 975], less than 1 nM.
With `COC(=O)N[C@H](C(=O)N(C)[C@@H](C)c1ncc(-c2ccc(C#Cc3ccc(-c4cnc([C@@H]5CCCN5C(=O)[C@@H](NC(=O)OC)C(C)C)[nH]4)cc3)cc2)[nH]1)C(C)C` [Compound 267] the figure was less than 1 nM.
For `CC(C)[C@H](NC(=O)N1CCN(C)CC1)C(=O)N1CCC[C@H]1c1ncc(-c2ccc(C#Cc3ccc(-c4cnc([C@@H]5CCCN5C(=O)[C@@H](NC(=O)N5CCN(C)CC5)C(C)C)[nH]4)cc3)cc2)[nH]1` [Compound 287] the value was greater than 1000 nM; for `COC(=O)N[C@@H](C(=O)N1CCC[C@H]1C(=O)Nc1ccc(C#Cc2ccc(-c3cnc([C@@H]4CCCN4C(=O)[C@H](NC(=O)OC)c4ccccc4)[nH]3)cc2)cc1)c1ccccc1` [Compound 171], less than 1 nM.
`O=C(N[C@@H](C(=O)N1CCC[C@H]1c1ncc(-c2ccc(C#Cc3ccc(-c4cnc([C@@H]5CCCN5C(=O)[C@H](NC(=O)N5CC[C@@H](O)C5)c5ccccc5)[nH]4)cc3)cc2)[nH]1)c1ccccc1)N1CC[C@@H](O)C1` [Compound 252]: the EC50 was less than 1 nM.
For `COC(=O)N[C@H](C(=O)N1CCSC[C@H]1c1ncc(-c2ccc(C#Cc3ccc4nc([C@@H]5CCCN5C(=O)[C@@H](NC(=O)OC)C(C)C)[nH]c4c3)cc2)[nH]1)C(C)C` [Compound 1062] the value was less than 1 nM.
For `O=C(N[C@@H](C(=O)N1CCC[C@H]1c1ncc(-c2ccc(C#Cc3ccc(-c4cnc([C@@H]5CCCN5C(=O)[C@H](NC(=O)N5CC[C@H](O)C5)c5ccccc5)[nH]4)cc3)cc2)[nH]1)c1ccccc1)N1CC[C@H](O)C1` [Compound 245] the value was less than 1 nM; for `COC(=O)N[C@@H](C(=O)N[C@@H](C)c1ncc(-c2ccc(C#Cc3ccc(-c4cnc([C@@H]5CCCN5C(=O)[C@H](NC(=O)OC)C(C)C)[nH]4)cc3)cc2)[nH]1)C(C)C` [Compound 290], greater than 1000 nM.
As to `COC(=O)N[C@@H](C(=O)N[C@@H](C)c1ncc(-c2ccc(C#Cc3ccc(-c4cnc([C@@H]5CCCN5C(=O)[C@H](NC(=O)OC)c5ccccc5)[nH]4)cc3)cc2)[nH]1)c1ccccc1` [Compound 279], the EC50 was less than 1 nM.
